Data set [1] has as its target Platelet-activating factor receptor (Homo sapiens, UniProt P25105). Format: tissue-based. Further: in other assays of this panel Not Active means under 50% inhibition at 10 µM.
Data set [2] concerns the target cGMP-specific 3',5'-cyclic phosphodiesterase (Homo sapiens, UniProt O76074). The data set is described as follows: DRUGMATRIX: Phosphodiesterase PDE5 enzyme inhibition (substrate: [3H]cGMP + cGMP). Format: tissue-based. The conditions noted are these: platelet; Not Active = under 50% inhibition at 10 µM.
Data set [3] deals with 5-hydroxytryptamine receptor 4 (Cavia porcellus, UniProt O70528). Format: cell membranes, Dunkin-Hartley, Striatum, Membrane.
The target in data set [4] is T1, Muscarinic acetylcholine receptor M4 (Homo sapiens, UniProt P08173). Further: in other assays of this panel Not Active means under 50% inhibition at 10 µM.
T1 sequence (P08173 whole entry): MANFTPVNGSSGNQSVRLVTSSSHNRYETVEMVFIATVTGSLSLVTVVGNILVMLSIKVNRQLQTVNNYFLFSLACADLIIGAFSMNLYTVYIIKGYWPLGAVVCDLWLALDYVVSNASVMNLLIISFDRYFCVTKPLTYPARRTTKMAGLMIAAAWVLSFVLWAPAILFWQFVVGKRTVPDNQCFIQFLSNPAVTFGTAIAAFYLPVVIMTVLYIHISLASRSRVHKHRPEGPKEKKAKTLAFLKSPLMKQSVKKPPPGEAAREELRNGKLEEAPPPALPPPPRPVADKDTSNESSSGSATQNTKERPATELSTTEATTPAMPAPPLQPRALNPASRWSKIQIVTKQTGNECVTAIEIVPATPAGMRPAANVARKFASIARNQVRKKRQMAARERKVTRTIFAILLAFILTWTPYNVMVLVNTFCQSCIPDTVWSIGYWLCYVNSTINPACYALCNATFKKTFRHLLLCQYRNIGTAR
Type of data set: cell membranes, CHO-K1, Membrane.

The next data set addresses Adenosine receptor A2a (Homo sapiens, UniProt P29274). The data set is described as follows: DRUGMATRIX: Adenosine A2A radioligand binding (ligand: […]). The conditions noted are these: hek293; Not Active = under 50% inhibition at 10 µM. Format: cell membranes, Membrane.
For data set [5], the target named is T2, C-C chemokine receptor type 4 (Homo sapiens, UniProt P51679). Further: in other assays of this panel Not Active means under 50% inhibition at 10 µM.
T2 sequence (P51679 whole entry): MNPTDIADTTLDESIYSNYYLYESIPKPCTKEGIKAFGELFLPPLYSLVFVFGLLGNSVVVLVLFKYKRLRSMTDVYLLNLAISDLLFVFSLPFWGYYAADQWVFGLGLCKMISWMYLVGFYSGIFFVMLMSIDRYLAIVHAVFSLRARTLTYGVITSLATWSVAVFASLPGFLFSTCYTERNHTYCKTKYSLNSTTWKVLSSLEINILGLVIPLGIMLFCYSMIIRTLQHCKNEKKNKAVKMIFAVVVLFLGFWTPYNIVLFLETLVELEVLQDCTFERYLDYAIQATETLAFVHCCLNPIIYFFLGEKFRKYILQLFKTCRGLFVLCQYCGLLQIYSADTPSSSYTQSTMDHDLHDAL
Format: cell membranes, Chem-1, Membrane. The conditions noted are these: chem-1.

Another data set has as its target Cytochrome P450 3A4 (Homo sapiens, UniProt P08684). The conditions noted are these: bti-tn-5b1-4. Further: in other assays of this panel Not Active means under 50% inhibition at 10 µM.

Sequence of Adenosine receptor A2a (P29274 whole entry): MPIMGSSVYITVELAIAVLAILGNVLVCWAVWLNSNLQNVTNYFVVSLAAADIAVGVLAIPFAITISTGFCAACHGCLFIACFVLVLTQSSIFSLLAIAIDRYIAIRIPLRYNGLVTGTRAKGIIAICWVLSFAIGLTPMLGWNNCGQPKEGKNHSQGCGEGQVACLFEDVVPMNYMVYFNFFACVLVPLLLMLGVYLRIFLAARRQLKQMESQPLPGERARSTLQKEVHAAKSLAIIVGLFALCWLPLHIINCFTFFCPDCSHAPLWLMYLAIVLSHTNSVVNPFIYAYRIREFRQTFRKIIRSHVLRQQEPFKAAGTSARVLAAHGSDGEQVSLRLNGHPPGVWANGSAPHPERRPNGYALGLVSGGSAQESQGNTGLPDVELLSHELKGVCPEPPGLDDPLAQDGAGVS
Sequence of Platelet-activating factor receptor (P25105 whole entry): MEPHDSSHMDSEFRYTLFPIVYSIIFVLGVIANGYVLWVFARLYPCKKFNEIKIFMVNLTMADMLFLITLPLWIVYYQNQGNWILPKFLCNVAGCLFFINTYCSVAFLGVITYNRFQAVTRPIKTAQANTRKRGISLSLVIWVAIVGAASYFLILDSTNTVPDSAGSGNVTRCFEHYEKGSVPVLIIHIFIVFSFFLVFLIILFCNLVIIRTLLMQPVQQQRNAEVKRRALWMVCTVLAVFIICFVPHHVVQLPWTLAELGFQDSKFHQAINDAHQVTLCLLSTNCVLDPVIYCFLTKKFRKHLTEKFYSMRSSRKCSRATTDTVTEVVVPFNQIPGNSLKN
Sequence of Cytochrome P450 3A4 (P08684 whole entry): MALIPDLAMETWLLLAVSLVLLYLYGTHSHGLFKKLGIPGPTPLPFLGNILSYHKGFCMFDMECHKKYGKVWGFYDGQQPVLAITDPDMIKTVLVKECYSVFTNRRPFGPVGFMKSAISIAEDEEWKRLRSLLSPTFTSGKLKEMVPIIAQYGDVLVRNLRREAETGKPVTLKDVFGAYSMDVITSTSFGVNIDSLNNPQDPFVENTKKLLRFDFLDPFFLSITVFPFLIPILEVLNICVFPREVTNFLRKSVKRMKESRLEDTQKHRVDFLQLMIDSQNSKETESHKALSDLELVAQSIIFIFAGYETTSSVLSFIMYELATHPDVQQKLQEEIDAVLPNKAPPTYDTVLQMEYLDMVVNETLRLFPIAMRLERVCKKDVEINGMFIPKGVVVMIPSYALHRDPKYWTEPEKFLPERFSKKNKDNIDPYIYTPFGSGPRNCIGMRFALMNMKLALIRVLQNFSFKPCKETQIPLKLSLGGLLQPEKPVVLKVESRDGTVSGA
Sequence of 5-hydroxytryptamine receptor 4 (O70528 whole entry): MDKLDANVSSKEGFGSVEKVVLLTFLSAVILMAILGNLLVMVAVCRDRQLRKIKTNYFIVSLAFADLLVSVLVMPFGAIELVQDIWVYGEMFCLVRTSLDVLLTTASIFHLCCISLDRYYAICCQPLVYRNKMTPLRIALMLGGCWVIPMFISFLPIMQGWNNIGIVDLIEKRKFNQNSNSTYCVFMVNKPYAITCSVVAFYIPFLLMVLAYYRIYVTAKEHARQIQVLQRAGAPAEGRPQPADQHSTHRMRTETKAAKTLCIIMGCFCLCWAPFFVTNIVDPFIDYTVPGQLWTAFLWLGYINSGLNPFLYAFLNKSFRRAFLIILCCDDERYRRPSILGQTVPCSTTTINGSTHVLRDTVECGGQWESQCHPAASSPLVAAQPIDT

Usually IC50 stands for the concentration that inhibits the measured activity by half. For orientation: Ki means the dissociation constant of the complex between target and ligand, obtained from inhibition or displacement. `C=CCC1(C(C)CCC)C(=O)NC(=O)NC1=O` (stereo unspecified) [SECOBARBITAL]: the half-maximal inhibitory concentration (IC50) entry (in data set [1]; in data set [2]; in data set [3]; in data set [4] (cho-k1); on Adenosine receptor A2a; in data set [5]) was “Not Active” in each case. Moreover, the concentration for half-maximal inhibition (IC50) result at Cytochrome P450 3A4 is reported as “Not Active”. The Ki result on Cytochrome P450 3A4 is recorded as “Not Active”.
For the compound `C[C@@H]1CN(c2c(F)c(N)c3c(=O)c(C(=O)O)cn(C4CC4)c3c2F)C[C@H](C)N1` [SPARFLOXACIN], the half-maximal inhibitory concentration (IC50) entry (in data set [1]; in data set [2]; in data set [3]; in data set [4] (cho-k1); at Adenosine receptor A2a; in data set [5]) was “Not Active” in each case. Besides, the concentration for half-maximal inhibition (IC50) entry against Cytochrome P450 3A4 is on record as “Not Active”. The Ki entry at Cytochrome P450 3A4 is recorded as “Not Active”.
In the case of `Cc1noc(NS(=O)(=O)c2ccc(N)cc2)c1C` [SULFISOXAZOLE], the IC50 entry (in data set [1]; in data set [2]; in data set [3]; in data set [4] (cho-k1); on Adenosine receptor A2a; in data set [5]) was “Not Active” throughout. For the same compound, the IC50 result on Cytochrome P450 3A4 was “Not Active”. For the same compound, the inhibition constant Ki entry on Cytochrome P450 3A4 is “Not Active”.
Regarding `CSc1ccc(/C=C2/C(C)=C(CC(=O)O)c3cc(F)ccc32)cc1` [SULINDAC SULFIDE], the IC50 entry (in data set [1]; in data set [2]; in data set [3]; in data set [4] (cho-k1); on Adenosine receptor A2a; in data set [5]) was “Not Active” throughout. In addition, on Cytochrome P450 3A4, the 50% inhibitory concentration (IC50) entry is “Not Active”. In addition, the Ki result at Cytochrome P450 3A4 is “Not Active”.
`Nc1c2c(nc3ccccc13)CCCC2` [TACRINE]: the IC50 result (in data set [1]; in data set [2]; in data set [3]; in data set [4] (cho-k1); on Adenosine receptor A2a; in data set [5]) was “Not Active” throughout. The IC50 entry against Cytochrome P450 3A4 is “Not Active”. The Ki result at Cytochrome P450 3A4 was “Not Active”.
Turning to `CC(C)N1CCN(c2ccc(OCC3COC(Cn4cncn4)(c4ccc(Cl)cc4Cl)O3)cc2)CC1` (stereo unspecified) [TERCONAZOLE], the half-maximal inhibitory concentration (IC50) entry in data set [1] is “Not Active”; in data set [2] it was “Not Active”; in data set [3] (read-out: IC50) it was 14.8 µM; in data set [4] (read-out: IC50), 13.7 µM; at Adenosine receptor A2a, “Not Active”; in data set [5] it was “Not Active”. The half-maximal inhibitory concentration (IC50) entry at Cytochrome P450 3A4 is recorded as “Not Active”. Besides, the values for the Ki (in data set [3] (read-out: Ki); in data set [4] (read-out: Ki); on Cytochrome P450 3A4) were 2.46 µM, 1.91 µM and “Not Active”, respectively.
With `Nc1nc2nc[nH]c2c(=S)[nH]1` [THIOGUANINE], the IC50 result (in data set [1]; in data set [2]; in data set [3]; in data set [4] (cho-k1); at Adenosine receptor A2a; in data set [5]) was “Not Active” throughout. In addition, the IC50 entry against Cytochrome P450 3A4 is “Not Active”. Moreover, the Ki entry at Cytochrome P450 3A4 was “Not Active”.
For the compound `Cc1cccc(N(C)C(=S)Oc2ccc3ccccc3c2)c1` [TOLNAFTATE], the IC50 result (in data set [1]; in data set [2]; in data set [3]; in data set [4] (cho-k1); at Adenosine receptor A2a; in data set [5]) was “Not Active” in each case. Further, the IC50 result at Cytochrome P450 3A4 is reported as “Not Active”. In addition, the Ki entry on Cytochrome P450 3A4 is listed as “Not Active”.
Take `NC[C@H]1CC[C@H](C(=O)O)CC1` [TRANEXAMIC ACID]: the half-maximal inhibitory concentration (IC50) result (in data set [1]; in data set [2]; in data set [3]; in data set [4] (cho-k1); at Adenosine receptor A2a; in data set [5]) was “Not Active” in each case. In addition, the IC50 entry against Cytochrome P450 3A4 is given as “Not Active”. Also, the Ki entry at Cytochrome P450 3A4 is given as “Not Active”.
For the compound `CC1(C)O[C@@H]2C[C@H]3[C@@H]4CCC5=CC(=O)C=C[C@]5(C)[C@@]4(F)[C@@H](O)C[C@]3(C)[C@]2(C(=O)CO)O1` [TRIAMCINOLONE ACETONIDE], the IC50 result (in data set [1]; in data set [2]; in data set [3]; in data set [4] (cho-k1); on Adenosine receptor A2a; in data set [5]) was “Not Active” in each case. Also, on Cytochrome P450 3A4, the 50% inhibitory concentration (IC50) result is recorded as “Not Active”. The inhibitory constant (Ki) entry at Cytochrome P450 3A4 is recorded as “Not Active”.
For `NS(=O)(=O)c1cc2c(cc1Cl)NC(C(Cl)Cl)NS2(=O)=O` (stereo unspecified) [TRICHLORMETHIAZIDE], the IC50 result (in data set [1]; in data set [2]; in data set [3]; in data set [4] (cho-k1); on Adenosine receptor A2a; in data set [5]) was “Not Active” each time. Besides, the IC50 entry on Cytochrome P450 3A4 is listed as “Not Active”. Further, the Ki result at Cytochrome P450 3A4 is “Not Active”.
`Cc1c(C)c2c(c(C)c1O)CCC(C)(COc1ccc(CC3SC(=O)NC3=O)cc1)O2` (stereo unspecified) [TROGLITAZONE]: the IC50 entry (in data set [1]; in data set [2]; in data set [3]; in data set [4] (cho-k1); on Adenosine receptor A2a; in data set [5]) was “Not Active” in each case. Besides, the IC50 entry at Cytochrome P450 3A4 is listed as “Not Active”. Besides, on Cytochrome P450 3A4, the Ki entry is recorded as “Not Active”.
As for `N[C@@H]1[C@H]2CN(c3nc4c(cc3F)c(=O)c(C(=O)O)cn4-c3ccc(F)cc3F)C[C@@H]12` [TROVAFLOXACIN], the IC50 entry (in data set [1]; in data set [2]; in data set [3]; in data set [4] (cho-k1); at Adenosine receptor A2a; in data set [5]) was “Not Active” each time. For the same compound, the concentration for half-maximal inhibition (IC50) result against Cytochrome P450 3A4 is “Not Active”. In addition, on Cytochrome P450 3A4, the Ki entry is given as “Not Active”.
Consider `N#CC(C#N)=Cc1ccc(O)c(O)c1` [TYRPHOSTIN 23], for which the IC50 result (in data set [1]; in data set [2]; in data set [3]; in data set [4] (cho-k1); on Adenosine receptor A2a; in data set [5]) was “Not Active” in each case. On Cytochrome P450 3A4, the half-maximal inhibitory concentration (IC50) result is “Not Active”. For the same compound, at Cytochrome P450 3A4, the Ki result is given as “Not Active”.
In the case of `CC[C@]1(O)C[C@H]2CN(CCc3c([nH]c4ccccc34)[C@@](C(=O)OC)(c3cc4c(cc3OC)N(C=O)[C@H]3[C@@](O)(C(=O)OC)[C@H](OC(C)=O)[C@]5(CC)C=CCN6CC[C@]43[C@@H]65)C2)C1` [VINCRISTINE], the 50% inhibitory concentration (IC50) entry (in data set [1]; in data set [2]; in data set [3]; in data set [4] (cho-k1); on Adenosine receptor A2a; in data set [5]) was “Not Active” throughout. Moreover, the IC50 entry at Cytochrome P450 3A4 is recorded as “Not Active”. The Ki entry on Cytochrome P450 3A4 was “Not Active”.
As to SODIUM NITROPRUSSIDE, the IC50 entry (in data set [1]; in data set [2]; in data set [3]; in data set [4] (cho-k1); on Adenosine receptor A2a; in data set [5]) was “Not Active” throughout. The IC50 entry against Cytochrome P450 3A4 is recorded as “Not Active”. Besides, the inhibition constant (Ki) result (in data set [1]; in data set [2]; in data set [3]; in data set [4] (cho-k1); on Adenosine receptor A2a; in data set [5]) was “Not Active” throughout. Further, the Ki entry at Cytochrome P450 3A4 is reported as “Not Active”.

Source of the values: ChEMBL document CHEMBL1909046, “DrugMatrix in vitro pharmacology data”.
